Measurements: patent publication US20250312356A1, “TREATMENT OF DYSMENORRHEA” (priority 2024, published 2025)
Read-outs that look alike come from different tables or passages of the source.

How the values were obtained:
[1] = system: neurotransmitter receptors, re-uptake sites, or steroid receptors; assay: in vitro receptor binding study
[2] = system: GABAA receptors, opioid receptors, or dopamine receptors; assay: in vitro receptor binding study
estrogen receptors = assay: in vitro receptor binding study
[3] = system: estrogen, androgen, progestin and glucocorticoid receptors; assay: in vitro agonist or antagonist activity on steroid hormone receptors; format: biochemical
[4] = system: isolated human nasal chemosensory neurons; assay: electrophysiological studies in isolated nasal chemosensory neurons; format: cell-based
[5] = system: rats, mice, rabbits and dogs; assay: acute and multidose (28 day) toxicity studies; format: in vivo
[6] = Ames reverse mutation assay
bone marrow = assay: in vivo bone marrow micronucleus test
pregnant rabbits = assay: reproductive toxicity studies; format: in vivo; details: intravenous doses up to 2.5 mg/kg/day during organogenesis
[7] = system: nasal chemosensory mucosa; assay: electrogram recorded from the surface of the nasal chemosensory mucosa; format: in vivo, human; details: intranasal
Procedure: (§1) The half effective dose of this effect was 0.087 μg.

[8] = system: human volunteers of both sexes; assay: reflex activity and physiologic parameters after intranasal administration in volunteers; format: in vivo; details: 1.6 μg intranasal
Procedure: as §1
(§2) 16α,17α-Epoxyestr-4-en-10β-ol-3-one decreased parasympathetic system tone resulting in increased sympathetic activity and stimulation of β2 adrenergic receptors in the bronchiole smooth muscle that induced bronchodilation; • (b) increased skin conductance amplitude is the result of increased skin secretions, which are produced by preponderance of the sympathetic nervous system tone (or decreased parasympathetic tone); • (c) decreased body temperature is explained by increased activity of the posterior (adrenergic) hypothalamus and decreased parasympathetic tone (anterior hypothalamus).

[9] = system: women of reproductive age; assay: clinical study of changes in physiological parameters; format: in vivo, human; details: 0.5 μg nasal spray vs vehicle, 14 women
[10] = system: women of reproductive age; assay: clinical study of core body temperature and tone of the sympathoadrenergic system; format: in vivo, human; details: 1.6 μg nasal spray
Procedure: It also changed the tone of the sympathoadrenergic system (as assessed by measuring physiologic sinus arrhythmia) within 5 minutes of administration, and the effect persisted for 15 to 20 minutes.

[11] = system: females with DSM-IV-defined PMDD; assay: Phase 2a study, daily symptom report pain cluster, cramps; format: in vivo, human
From the text: During a 3- to 5-week screening period, patients who presented to the clinic for bothersome PMDD symptoms (defined as “affected functioning”) were recruited. The Premenstrual Tension Syndrome scale was used for screening. After study eligibility criteria and PMDD symptom presence were confirmed at Visit 1, patients received single-blind placebo; those with no acute improvement were eligible for randomization study. Randomized patients presented for Visit 2 when PMDD symptoms were bothersome during the second cycle after entry. PH80 (0.9 μg) or placebo was administered intranasally; PMDD symptoms were evaluated 30 and 60 minutes later. Patients were then supplied with their assigned double-blind treatment for intranasal self-administration up to 4 times a day (PH80 0.9 μg/dose or matching placebo) for up to 6 consecutive days before the estimated menses onset in that cycle. On the first day of menses in the second cycle, a follow-up visit (Visit 3) occurred. 82 females were screened; 61 met eligibility criteria and were randomized to receive PH80 (n=33) or placebo (n=28). […] A total of 49 patients provided at least 1 post-treatment assessment and were included in the pain efficacy analysis.
Pain efficacy analysis for cramping was rated daily by the patient on a 5-point scale ranging from 0 (no symptoms at all) up to 4 (very severe). The overall pain cluster score and individual symptom ratings were compared post-hoc using two-sided T-tests, without adjustments for multiplicity or within-patient variance; means for each group were plotted for each reported day, and no imputation was made for missing data. Results are summarized in Table 2 and depicted in FIG. 3.

menopausal women = assay: hot flashes after intranasal administration; format: in vivo, human
From the text: as §2

[12] = system: women diagnosed with PMDD
[13] = in vivo

C[C@]12CCC3C(CCC4=CC(=O)CC[C@]43O)C1C[C@H]1O[C@H]12 (stereo partly drawn) [16α,17α-epoxyestr-4-en-10β-ol-3-one]
binding to neurotransmitter receptors, re-uptake sites, or steroid receptors [1]: no binding | binding to GABAA receptors, opioid receptors, or dopamine receptors [2]: does not bind | binding to estrogen receptors (estrogen receptors): does not bind | agonist or antagonist activity on estrogen, androgen, progestin and glucocorticoid receptors [3]: no agonist or antagonist activity | concentration giving maximal response (amplitude) ([4]; concentration-dependent amplitude): 10^−7 to 10^−6 M | inward currents ([4]; isolated human nasal chemosensory neurons): induced inward currents | electrotonic depolarization of the nasal septal chemosensory mucosa ([4]; nasal septal chemosensory mucosa): electrotonic depolarization of the nasal septal chemosensory mucosa | deaths, adverse clinical signs, effects on laboratory or pathology parameters ([5]; single and repeated intranasal and intravenous doses): no deaths or adverse clinical signs or effects on laboratory or pathology parameters observed | tolerability ([5]; single and repeated intranasal doses (up to 100 μg/rat, 400 μg/rabbit, 600 μg/dog) and intravenous doses up to 2.5 mg/kg): well tolerated in all species tested | mutagenic or clastogenic potential [6]: no evidence of mutagenic or clastogenic potential | mutagenic or clastogenic potential (bone marrow): no evidence of mutagenic or clastogenic potential | effects on maternal or litter parameters (pregnant rabbits): no adverse effects on maternal or litter parameters | half effective dose of electrogram activation [7]: 0.087 µg | activation of the electrogram ([7]; microgram quantities): concentration dependent activation | body core temperature (external ear canal) [8]: decreased body core temperature | cardiac rate [8]: no significant change | depth of the inspiratory cycle of respiration [8]: significantly increased amplitude | latency of modulation of reflex activity after electrogram [8]: 5 to 10 s | respiration rate [8]: decreased respiration rate within physiologic range | skeletal muscle tone (electromyogram, chin muscles) [8]: decreased skeletal muscle tone (relaxation) | skin conductance (electrodermal activity) [8]: increased amplitude | cardiac frequency [9]: not statistically significant increase | core body temperature [9]: statistically significant decreases | galvanic skin reflex [9]: statistically significant decreases | respiratory frequency [9]: statistically significant decreases | skeletal muscle tone [9]: statistically significant decreases | decrease in core body temperature [10]: 1±0.23 °C | latency of decrease in core body temperature [10]: 0.5 to 4 min | persistence of decrease in core body temperature [10]: 9 ± 2.5 min | persistence of effect on tone of the sympathoadrenergic system [10]: 15 to 20 min | time to change of tone of the sympathoadrenergic system (physiologic sinus arrhythmia) [10]: ≤ 5 minutes | cramps score, mean ([11]; Day 1, 0.9 μg/dose up to 4 times a day, 5-point scale 0 to 4): 1.26 | cramps score, mean ([11]; Day 2): 1.00 | cramps score, mean ([11]; Day 3): 0.59 | cramps score, mean ([11]; Day 4): 0.52 | cramps score, mean ([11]; Day 5): 0.42 | cramps score, mean ([11]; Day 6, n=19, P=0.01 vs placebo): 0.21 | hot flashes (menopausal women): decreased number, severity and bother of hot flashes | cortical behavioral symptoms (headache, tension) ([12]; 0.9 μg intranasal aerosol): significant improvements | hypothalamic behavioral symptoms (fatigue, anger, craving for foods) ([12]; 0.9 μg intranasal aerosol): significant improvements | limbic system behavioral symptoms (mood swings, depression, lack of interest) ([12]; 0.9 μg intranasal aerosol): significant improvements | mean cramping score ([12]; Day 1, 29 women, scale 0 to 4): 1.19 | mean headache score ([12]; Day 1, scale 0 to 4): 1.14 | difference in mean cramping scores vs placebo ([12]; Day 4, p<0.05, one-tail test): significant | difference in mean headache scores vs placebo ([12]; Day 5, p<0.05, one-tail test): significant | share of group reporting cramping symptoms ([12]; Day 6): 17% | mean cramping score ([12]; Day 6, scale 0 to 4): 0.24 | mean headache score ([12]; Day 6, scale 0 to 4): 0.28 | persistence of improvements ([12]; single dose intranasal): approximately 5 hours | time to appearance of improvements ([12]; single dose intranasal): ≤ 30 min | serious adverse events ([12]; up to 4 times daily): No serious adverse events were reported | side effects ([12]; up to 4 times daily): minimal and similar to administration of placebo | systemic exposure [13]: lack of systemic exposure
